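GI50 = concentration required for 50% inhibition of growth. TGI denotes the concentration required for complete inhibition of growth.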
What was measured:
Experiment in all cases: inhibition of tumour cell growth, NCI panel, 384-well format
OVCAR-5 ovarian = test system: OVCAR-5 ovarian
MDA-MB-435 melanoma = test system: MDA-MB-435 melanoma
HS 578T breast = test system: HS 578T breast
PC-3 prostate = test system: PC-3 prostate
MDA-MB-231 breast = test system: MDA-MB-231 breast
HOP-92 NSCLC = test system: HOP-92 NSCLC
DU-145 prostate = test system: DU-145 prostate
SR leukemia = test system: SR leukemia
ACHN renal = test system: ACHN renal
MOLT-4 leukemia = test system: MOLT-4 leukemia
CAKI-1 renal = test system: CAKI-1 renal
MCF7 breast = test system: MCF7 breast
K-562 leukemia = test system: K-562 leukemia
HT29 colon = test system: HT29 colon
SN12C renal = test system: SN12C renal
A549 NSCLC = test system: A549 NSCLC
SK-MEL-2 melanoma = test system: SK-MEL-2 melanoma
SF-268 CNS = test system: SF-268 CNS
SK-MEL-28 melanoma = test system: SK-MEL-28 melanoma
NCI-H460 NSCLC = test system: NCI-H460 NSCLC
OVCAR-4 ovarian = test system: OVCAR-4 ovarian
UACC-62 melanoma = test system: UACC-62 melanoma
A498 renal = test system: A498 renal
NCI-H522 lung = test system: NCI-H522 lung
SNB-19 CNS = test system: SNB-19 CNS
HCT-116 colon = test system: HCT-116 colon
M14 melanoma = test system: M14 melanoma
TK-10 renal = test system: TK-10 renal
SNB-75 CNS = test system: SNB-75 CNS
SW-620 colon = test system: SW-620 colon
KM12 colon = test system: KM12 colon
OVCAR-3 ovarian = test system: OVCAR-3 ovarian
786-0 renal = test system: 786-0 renal
BT-549 breast = test system: BT-549 breast
HL-60(TB) leukemia = test system: HL-60(TB) leukemia

`O=C(O)c1ccc2c(c1)CCCC(c1ccc(Cl)cc1Cl)=C2c1ccc(O[C@H]2CCN(CCCF)C2)cc1` gave a GI50 (OVCAR-5 ovarian) of 15.2 µM, a TGI (OVCAR-5 ovarian) of 28.6 µM and a GI50 (MDA-MB-435 melanoma) of 12.2 µM. It also gave a TGI (MDA-MB-435 melanoma) of 24.6 µM, a GI50 (HS 578T breast) of 3.36 µM and a TGI (HS 578T breast) of 18.1 µM. It also gave a GI50 (PC-3 prostate) of 10.2 µM, a TGI (PC-3 prostate) of 21.9 µM and a GI50 (MDA-MB-231 breast) of 14.8 µM. It also gave a TGI (MDA-MB-231 breast) of 28.1 µM, a GI50 (HOP-92 NSCLC) of 12.3 µM and a TGI (HOP-92 NSCLC) of 24.8 µM. The GI50 (DU-145 prostate) was 13.6 µM, the TGI (DU-145 prostate) was 26.6 µM and the GI50 (SR leukemia) was 2.92 µM. It also gave a TGI (SR leukemia) of 10.8 µM, a GI50 (ACHN renal) of 11.9 µM and a TGI (ACHN renal) of 24.3 µM. The GI50 (MOLT-4 leukemia) was 3.61 µM, the TGI (MOLT-4 leukemia) was 14.2 µM and the GI50 (CAKI-1 renal) was 13 µM. The TGI (CAKI-1 renal) was 25.7 µM, the GI50 (MCF7 breast) was < 0.01 µM and the GI50 (K-562 leukemia) was 7.96 µM. For the same compound, the TGI (K-562 leukemia) was 20.7 µM, the GI50 (HT29 colon) was 12.2 µM and the TGI (HT29 colon) was 24.7 µM. It also gave a GI50 (SN12C renal) of 14.4 µM, a TGI (SN12C renal) of 27.5 µM and a GI50 (A549 NSCLC) of 9.67 µM. The GI50 (SK-MEL-2 melanoma) was 17.4 µM, the TGI (SK-MEL-2 melanoma) was 31.2 µM and the GI50 (SF-268 CNS) was 14.8 µM. The TGI (SF-268 CNS) was 28.2 µM, the GI50 (SK-MEL-28 melanoma) was 11.7 µM and the TGI (SK-MEL-28 melanoma) was 24 µM. The GI50 (NCI-H460 NSCLC) was 10.3 µM, the TGI (NCI-H460 NSCLC) was 22.2 µM and the GI50 (OVCAR-4 ovarian) was 11.3 µM. It also gave a TGI (OVCAR-4 ovarian) of 23.5 µM, a GI50 (UACC-62 melanoma) of 13.5 µM and a TGI (UACC-62 melanoma) of 26.3 µM. For the same compound, the GI50 (A498 renal) was 6.94 µM, the TGI (A498 renal) was 19.6 µM and the GI50 (NCI-H522 lung) was 10.3 µM. The TGI (NCI-H522 lung) was 21.9 µM, the GI50 (SNB-19 CNS) was 13.1 µM and the TGI (SNB-19 CNS) was 26 µM. It also gave a GI50 (HCT-116 colon) of 5.87 µM, a TGI (HCT-116 colon) of 18.8 µM and a GI50 (M14 melanoma) of 11.1 µM. It also gave a TGI (M14 melanoma) of 23.1 µM, a GI50 (TK-10 renal) of 12.5 µM and a TGI (TK-10 renal) of 25.2 µM. For the same compound, the GI50 (SNB-75 CNS) was 12.9 µM, the TGI (SNB-75 CNS) was 25.6 µM and the GI50 (SW-620 colon) was 15.7 µM. The TGI (SW-620 colon) was 29.4 µM, the GI50 (KM12 colon) was 11.6 µM and the TGI (KM12 colon) was 24.2 µM. It also gave a GI50 (OVCAR-3 ovarian) of 10.1 µM, a TGI (OVCAR-3 ovarian) of 21.8 µM and a GI50 ([…]-0 renal) of 12.7 µM. It also gave a TGI (786-0 renal) of 25.3 µM, a GI50 (BT-549 breast) of 12 µM and a TGI (BT-549 breast) of 24.3 µM. For the same compound, the GI50 (HL-60(TB) leukemia) was 4.44 µM and the TGI (HL-60(TB) leukemia) was 16 µM.

Source: PubChem BioAssay (NCI)
